Experimental data published in US20170065579A1, “Sustained Release Low Dose Formulations and Uses Thereof” (priority 2015, published 2017).

Columns and labels:
[1] = naltrexone release from payloaded matrices (in vitro release); type: physicochemical; conditions: in contrast to the hydrochloride form
Experimental: The number of days of release are shown on the horizontal axis (X axis). The cumulative percentage of naltrexone release is shown on the vertical axis (Y axis). […] Release was measured under conditions of about 37 degrees Celsius. Before release was measured, steps had been taken to incorporate (payload) naltrexone into the matrices.
The number of days of release are shown on the horizontal axis (X axis). The cumulative percentage of naltrexone release is shown on the vertical axis (Y axis). Before release was measured, steps had been taken to incorporate (payload) naltrexone into the matrices.
Exemplary Formula #1—PBS Buffer Containing 0.01% Sodium Azide as Suspension and Release Medium: • 1. To a 1 L volumetric flask, add the contents of 1 package of ready-to-use powder for PBS • 2. Add sodium azide ([…]) • 3. Add Millipore water to the calibration mark • 4. Dissolve all solids • 5. Store at 8 degrees celsius (max)

[2] = test system: opioid receptor; conditions: cited from earlier work
[3] = low dosages, about 3-5 mg/day; cited from earlier work
[4] = in vivo, cited from earlier work

Structure (SMILES) | release profiles [1] | potency relative to naloxone [2] | symptom severity [3] | oral bioavailability ([4]; po) | duration of effect [4]
O=C1CC[C@@]2(O)[C@H]3Cc4ccc(O)c5c4[C@@]2(CCN3CC2CC2)[C@H]1O5 [naltrexone base, naltrexone] | meet preferred target criteria |  |  |  | 
O=C1CC[C@@]2(O)[C@H]3Cc4ccc(O)c5c4[C@@]2(CCN3CC2CC2)[C@H]1O5 [naltrexone] |  | twice the potency | reduce symptom severity | good oral bioavailability | can last for a day
